Experimental data taken from patent US5296496A, “2-saccharinylmethyl phosphates, phosphonates and phosphinates useful as proteolytic enzyme inhibitors and compositions and method of use thereof” (Sterling Winthrop Inc., priority 1992, dated 1994).

Biological target: T1, human leukocyte elastase (HLE) (Homo sapiens, UniProt P08246)
T1 sequence (P08246 30-267): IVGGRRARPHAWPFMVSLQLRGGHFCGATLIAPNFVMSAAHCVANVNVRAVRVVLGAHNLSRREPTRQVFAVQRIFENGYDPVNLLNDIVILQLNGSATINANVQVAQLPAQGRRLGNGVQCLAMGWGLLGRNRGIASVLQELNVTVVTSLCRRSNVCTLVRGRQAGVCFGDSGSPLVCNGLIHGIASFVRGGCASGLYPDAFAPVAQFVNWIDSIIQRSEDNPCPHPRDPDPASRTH
Assay: Inhibition constant Ki* of human leukocyte elastase (HLE), calculated as koff/kon
Format: biochemical
Settings: unit inferred
Protocol: Thus, instead of measuring a Ki, a Ki * is calculated which is defined as the ratio of the koff /kon, the rate of reactivation of the enzyme to the rate of inactivation of the enzyme. The values of koff and kon are measured and Ki * is then calculated.
The rate of inactivation, kon, of enzymatic activity was determined for the compounds tested by measuring the enzyme activity of an aliquot of the respective enzyme as a function of time after addition of the test compound. […] The rate of inactivation is then equal to [formula] where [I] is the concentration of the inhibiting compound.
The reactivation constant, koff, is similarly determined, and the inhibition constant, Ki *, is then calculated as

Compound `CCOP(=O)(OCC)OCN1C(=O)c2c(C(C)C)cc(OC)cc2S1(=O)=O` [Example 13] has a Ki of 0.035 nM.
